Measurements taken from PMC6698794, “Catalytic Knockdown of miR-21 by Artificial Ribonuclease: Biological Performance in Tumor Model” (Frontiers in Pharmacology, 2019).

Columns and labels:
[1] = Nuclease resistance assay in DMEM with 10% fetal bovine serum; assay type: in vitro ADME; settings: 0.1 µg/µl, DMEM with 10% FBS, 37°C; 12% PAAG/8M urea gel, Stains-All
Method: Oligonucleotides or conjugates (0.1 µg/µl) were incubated at 37°C in Dulbecco’s Modified Eagle Medium (DMEM) (Sigma, USA) with 10% fetal bovine serum (FBS; GE Healthcare, USA). Reactions were quenched in urea (8M) and immediately frozen in liquid nitrogen, prior to analysis of thawed samples in 12% PAAG/8M urea gels, using Tris-Borate-EDTA (TBE) as running buffer, Stains-All (MP Biomedicals, USA) and photographic gel documentation (VilberLourmat, France).

B16 cells = assay: In vitro invasiveness assay (xCELLigence, Matrigel-coated CIM-Plates); assay type: cell-based, mouse; settings: 1 µM with Lipofectamine; compared with Lipofectamine alone
Method: (§1) B16 cells were pre-seeded (2 × 10^5 per well of 24-well plates) in DMEM/10% FBS a day before transfection. Medium was replaced with serum-free DMEM, prior to incubation for 4 h with h-ODN, 2′-OMe, Inh (hsa-miR-21 5 p inhibitor, Ambion, USA), miR-21-miRNase, or luc-POC, each (0.1 or 1 µM) pre-complexed with Lipofectamine (Thermo Fisher Scientific, USA) in Opti-MEM medium (Thermo Fisher Scientific, USA) according to manufacturer’s instructions, then cells were cultivated in fresh culture standard medium for 24–72 h.
Real-time cell analysis (xCELLigence, ACEABiosciences, USA) used CIM-Plates held at 37°C under an atmosphere of 5% CO2. Top chamber wells were coated with Matrigel (20 µl per well, diluted 1:40 with cold serum-free DMEM) and allowed to polymerize (4 h at 37°C under 5% CO2) prior to cell seeding. Bottom chamber wells were filled with DMEM/10% FBS (160 µl each), prior to assembly of the chambers, when serum-free DMEM was added to the top wells (30 µl each) and equilibrated (1 h at 37°C under 5% CO2). At 4 h after transfection, B16 cells (4 × 10^4) were seeded into each top chamber well in serum-free DMEM and pre-incubated for 30 min at room temperature before monitoring (xCELLigence set to collect impedance data, reported as cell index at least once every 30 min).
(§2) Figure 2 Biological effect of the miR-21-specific miRNase. (A) Apoptotic profile of B16 melanoma cells after transfection with miR-21-miRNase and control luc-POC. Cytofluorimetric analysis of cells after staining with Annexin V-FITC/PI 48 h after transfection with miRNase or luc-POC (1 µM) in complex with Lipofectamine2000. Q1—population of living cells; Q2—Annexin V-FITC+/PI-, early apoptosis; Q3—Annexin V-FITC+/PI+, late apoptosis; Q4—Annexin V-FITC-/PI+, necrosis. (B) Average percentage of apoptotic (early and late apoptosis) and necrotic B16 cell population. Data represent mean ± s.e. of four independent experiments.(C, D) Invasion activity of B16 cells after incubation with Lipofectamine (LF) alone or treated with either hairpin antisense oligonucleotide (h-ODN), hairpin 2′-OMe oligonucleotide (2′-OMe), commercial miR-21 inhibitor (Inh), miR-21-miRNase, and control conjugate (luc-POC) in the concentration of 1 µM. Migration of cells was recorded in real time using the xCELLigence cell analysis system. Control—B16 cells without treatment. Data represent mean ± s.d. of four independent experiments.

RLS40 lymphosarcoma [2] = assay: Tumor transplantation assay: RLS40 cells treated ex vivo, then inoculated intramuscularly; assay type: in vivo, CBA mice; settings: cells treated with 1 µM before transplantation
Method: (§3) RLS40 ascites were taken from CBA mice intraperitoneally injected with tumor cells (2 × 10^6 in 0.2 ml buffered saline) into their abdominal cavities. RLS40 cells, isolated from ascites fluid by filtration through LSM were divided into seven portions: 1) untreated cells; 2) the cells incubated with Lipofectamine; the cells transfected with 1 µM of 3) h-ODN, 4) 2′-OMe, 5) Inh, 6) miR-21-miRNase, or 7) luc-POC each. After 4 h of transfection, cell suspensions (0.1 ml, 2 × 10^6 cells) were intramuscularly inoculated into the right lower limb of CBA mice for solid tumor development. As soon as tumors began to be palpable, the tumor volumes were measured every 2–3 days using calipers. Tumor volumes were calculated as V = (π/6 × length × width × height). Hepatic index was estimated as (liver weight/mouse weight) × 100% and as 5.0% for healthy CBA mice. Tumor doubling time (DT) was estimated as DT = (t − t0) × ln 2/(ln V − ln V0), where (t − t0) indicates the length of time between two measurements of tumor size and V0 and V denote the tumor volume at two points of the measurement ([Ozono et al., 2004]).
Figure 3 Antitumor effect of miR-21-specific miRNase. (A) Retardation of RLS40 growth in vivo after treatment of RLS40 cells with antisense oligonucleotides, control conjugate (luc-POC), or miR-21-miRNase. (B) Tumor volume on day 19 after RLS40 transplantation. Mice were injected with RLS40 cells either without any treatment (w/t) or treated with Lipofectamine (LF), commercial miR-21 inhibitor at concentration 0.1 µM (Inh 0.1, recommended) and 1 µM (Inh 1, in accordance to concentration of miRNase used in the study), control conjugate (luc-POC, 1 µM), hairpin 2′OMe oligonucleotide (2′-OMe, 1 µM), hairpin antisense oligonucleotide (h-ODN, 1 µM) or miR-21-specific miRNase (miR-21-miRNase, 1 µM). Data were statistically analyzed using two-way ANOVA with post hoc Tukey test. Data are presented as mean ± s.e. p-value indicates a statistically reliable difference. (C) Doubling time of RLS40 tumors after treatment with oligonucleotides and conjugates. TEXT PRINTED IN THE PICTURE: (C) untreated: DT, days: 2,45±0,49 | (C) LF: DT, days: 2,48±0,35 | (C) Inh 0.1: DT, days: 2,56±0,59 | (C) Inh 1: DT, days: 13,90±0,46 | (C) 2’-OMe: DT, days: 3,17±1,45 | (C) luc-POC: DT, days: 2,40±0,45 | (C) h-ODN: DT, days: 3,00±1,83 | (C) miR-21-miRNase: DT, days: 12,77±0,34

RLS40 lymphosarcoma [3] = assay: Hepatic index of mice implanted with treated RLS40 cells; assay type: in vivo; settings: cells treated with 1 µM; (liver weight/mouse weight) × 100%; 5.0% for healthy CBA mice; Mean ± SE
Method: as §3
Supplementary Table 2. Hepatic indexes of mice implanted with RLS40 treated with antisense
oligonucleotides, control luc-POC and miR-21-miRNase
Type of treatment Hepatic index, %* p-value (vs control)
* – Mean ± SE; s.i. – statistically insignificant
Hepatic index was estimated as (liver weight/mouse weight) × 100% and as 5.0% for healthy CBA
The MDR status of RLS40 may add to the burden on the liver, when this type of tumor
metastasizes into the liver (Sen’kova et al., 2012). Ex vivo treatment of RLS40 cells by
oligonucleotides and miRNase avoids the toxic effect of antisense oligonucleotides, their conjugates
and transfection reagents directly on the tumor-bearing animal. This may allow consideration of
whether the decrease of migration activity of tumor cells translated into reduced metastatic burden of
RLS40 on the liver. Treatment of the cells seeding the tumor may not reduce migration and […]

B16 melanoma cells = assay: Annexin V-FITC/PI apoptosis assay; assay type: cell-based, mouse; settings: 1 µM with Lipofectamine; 24, 48, 72 h after transfection; maximum extent; flow cytometry
Method: as §1
At 24, 48, and 72 h after transfection, cells were harvested, washed twice with PBS, resuspended in Binding Buffer to a density of 2–5 × 10^5/ml, and incubated with annexin V-FITC and propidium iodide (PI) (ab14085, Abcam, UK) in the dark at room temperature for 15 min, prior to flow cytometry analysis (Novocyte CEA Biosciences, USA).
as §2

Substance	Survival (intact) in serum-containing medium [1]	Migration rate of transfected B16 cells (in words) (B16 cells)	Tumor doubling time against w/t (in words) (RLS40 lymphosarcoma [2])	Tumor growth (in words) (RLS40 lymphosarcoma [2])	Hepatic index (RLS40 lymphosarcoma [3]) [%]	Necrosis of melanoma B16 cells (Annexin V-FITC-/PI+) (B16 melanoma cells)
ODN: linear 14-mer deoxyribooligonucleotide TCAGTCTGATAAGC (unmodified DNA)	rapidly degraded					
acetyl-[(LeuArg)2Gly]2-aminohexyl-CGATAAATAACGCGСAAGTCAGCGAAAGCTGACTTG [luc-POC, control peptide-oligonucleotide conjugate; same hairpin, complementary part replaced by luciferase gene fragment]		almost the same rate as cells incubated with Lipofectamine	did not show a statistically significant difference	did not differ	5.56±0.11	up to 6.5%
